Assays:
[1] = test system: HT29 (colon) cancer cells; test: MTT growth inhibition assay, HT29; type: cell-based; settings: 72 h, ± standard error, read-out: Growth Inhibition Concentration, GI50
Protocol: (§1) The Schiff bases and their organotin(IV) compounds were screened for in vitro cytotoxicity against a panel of 12 cancer cell lines: EJ-28 (muscle invasive bladder), RT-112 (minimum-invasive bladder), HT29 (colon), U87 and SJ-G2 (glioblastoma), MCF-7 (breast), A2780 (ovarian), H460 (lung), A431 (skin), DU145 (prostate), BE2-C (neuroblastoma), MIA (pancreatic) and one normal breast cell line (MCF-10A) using the MTT metabolic assay (Figure 6). After 72 h of incubation, a dose-dependent […] effect towards the cancer cell lines was measured at very low micromolar (µM) concentrations of the compounds. The growth inhibition concentration of the Schiff bases and their organotin(IV) compounds required to inhibit 50% cell proliferation relative to the cells that were treated with DMSO (control) are given in Table 2. The stability of these compounds was assessed in DMSO as well as in a mixture of DMSO-H2O. The absorbance obtained from UV-vis spectroscopy analysis was monitored for 72 h, and an unchanged pattern in the spectra was indicative that the compounds were stable in both the solvent systems tested.
(§2) For HT29 (colon), U87 and SJ-G2 (glioblastoma), MCF-7 (breast), A2780 (ovarian), H460 (lung), A431 (skin), Du145 (prostate), BE2-C (neuroblastoma), MIA (pancreas) cell lines and one normal breast cell line, MCF-10A (normal breast), the MTT assays were performed using the following method:
(§3) Stock solutions were prepared as follows and stored at −20 °C: Trial compounds were stored as 10 mM solutions in DMSO. All cell lines were cultured in a humidified atmosphere 5% CO2 at 37 °C. The cancer cell lines were maintained in Dulbecco’s modified Eagle’s medium (DMEM) (Trace Biosciences) supplemented with 10% foetal bovine serum, 10 mM sodium bicarbonate, penicillin (100 IU/mL), streptomycin (100 μg/mL) and glutamine (4 mM). The normal cell line, MCF-10A was cultured in DMEM:F12 (1:1) cell culture media, 5% heat inactivated horse serum, supplemented with penicillin (50 IU/mL), streptomycin (50 μg/mL), 20mM Hepes, L-glutamine (2 mM), epidermal growth factor (20 ng/mL), hydrocortisone (500 ng/mL), cholera toxin (100 ng/mL) and insulin (10 μg/mL).
(§4) Cells in logarithmic growth were transferred to 96-well plates. Cytotoxicity was determined by plating cells in duplicate in 100 μL medium at a density of 2500–4000 cells/well. On day 0 (24 h after plating), when the cells were in logarithmic growth, 100 μL medium, with or without the test agent, was added to each well. After 72 h drug exposure, growth inhibitory effects were evaluated using the MTT (3-[4,5-dimethylthiazol-2-yl]-2,5-diphenyltetrazolium bromide) assay and absorbance read at 540 nm. Percentage growth inhibition was determined at a fixed drug concentration of 25 μM. A value of 100% was indicative of complete cell growth inhibition. Those analogues showing appreciable percentage growth inhibition underwent further dose-response analysis allowing for the calculation of a GI50 value. This value is the drug concentration at which cell growth is 50% inhibited based on the difference between the optical density values on day 0 and those at the end of drug exposure.

[2] = test system: U87 (glioblastoma) cancer cells; test: MTT growth inhibition assay, U87; type: cell-based; settings: 72 h, ± standard error, read-out: Growth Inhibition Concentration, GI50
Protocol: as §1, §2, §3, §4

[3] = test system: RT-112 cells; test: Intracellular ROS measurement (DCFH-DA); type: cell-based, human; settings: 24 h, DMSO as control
Excerpt: Two compounds with the most promising bioactivity, Ph2Sn(S2MoVa) and Ph2Sn(S4MoVa), were selected for further cell apoptosis studies, in order to evaluate the primary damage to biological macromolecules through redox reactions, particularly via formation of ROS [68]. ROS are highly reactive molecules/radicals (O2, O2^•, H2O2, HO^•) that are continuously generated during aerobic metabolism, but when in excessive amounts, can lead to protein and DNA oxidation, protein cross-linking and cell death. Estimation of the levels of ROS in cell culture is an important step towards better understanding the mechanisms that lead to cell death or disease processes. […] ROS production was measured using the ROS-detecting fluorescent dye DCFH-DA and DMSO was used as a control. Both compounds were able to induce ROS production in RT-112 cell lines after 24 h.
Intracellular ROS measurements were used to assess antioxidant or ROS activity. Measurements were performed using a fluorescence plate reader following to the procedure outlines in the ROS detection kit (OxiSelect™). […] The cells were then read on a standard Infinite M200 fluorescence microplate reader (Tecan, Männedorf, Switzerland). The ROS or antioxidant content in unknown samples was determined by comparison with the predetermined DCF standard curve.

Substance | GI50 [1] [nM] | GI50 [2] [nM] | ROS generation [3]
Diphenyltin(IV) [Ph2Sn(S4MoVa), Diphenyltin(IV) [S-4-Methybenzyl-β-N-(2-hydroxy-3-methoxybenzylmethylene) dithiocarbazate]] | 870 ± 220 | 1300 ± 400 | stimulated ROS generation
Diphenyltin(IV) [Ph2Sn(S2MoVa), Diphenyltin(IV) [S-2-Methybenzyl-β-N-(2-hydroxy-3-methoxybenzylmethylene) dithiocarbazate]] | 1800 ± 130 | 4400 ± 1700 | stimulated ROS generation

Reference: article PMC6413231, “o-Vanillin Derived Schiff Bases and Their Organotin(IV) Compounds: Synthesis, Structural Characterisation, In-Silico Studies and Cytotoxicity” (International Journal of Molecular Sciences, 2019)
